This is an account of results in patent publication US5364848A, “Substituted cephalosporin sulfones as anti-inflammatory and antidegenerative agents” (Merck & Co., Inc., priority 1992, dated 1994).

The first assay has as its system elastase both from the pancreas and the PMN.
Experiment: not given
As to conditions: background statement; cited from earlier work.
As for “α1 -Antitrypsin: a glycoprotein contained in human serum that has a wide inhibitory spectrum”, the inhibitory spectrum entry was “wide inhibitory spectrum covering, among other enzymes, elastase both from the pancreas and the PMN”.

Another assay concerns PG synthesis.
Experiment: not given
As to conditions: background statement; cited from earlier work.
`COc1ccc2c(c1)c(CC(=O)O)c(C)n2C(=O)c1ccc(Cl)cc1` [indomethacin]: the “inhibition of PG synthesis” value is reported as “inhibited”.
`CCCCC1C(=O)N(c2ccccc2)N(c2ccccc2)C1=O` [phenylbutazone]: the “inhibition of PG synthesis” value was “inhibited”.

For a further assay, the target named is T1, Human Polymorphonuclear Leukocyte Elastase (Homo sapiens, UniProt P08246).
T1 sequence (P08246 30-247 limits assumed): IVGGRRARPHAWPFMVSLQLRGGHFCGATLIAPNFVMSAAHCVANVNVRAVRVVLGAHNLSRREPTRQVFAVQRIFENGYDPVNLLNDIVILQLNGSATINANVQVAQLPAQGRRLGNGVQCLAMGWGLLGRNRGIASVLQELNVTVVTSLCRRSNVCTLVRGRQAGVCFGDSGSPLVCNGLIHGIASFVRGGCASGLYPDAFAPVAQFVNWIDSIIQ
Put plainly: biochemical.
Conditions: not given
How it is done: Protocol--Enzyme Assays for the Inhibition of Human Polymorphonuclear Leukocyte Elastase Via Hydrolysis of N-t-Boc-alanyl-alanyl-prolylalanine-p-nitroanilide Reagents:
0.05M TES (N-tris[hydroxymethyl]methyl-2-amino-ethanesulfonic acid) Buffer, pH 7.5.
0.2 mMN-t-Boc-alanyl -alanyl -prolyl-alanine-p-nitroanilide (Boc-AAPAN).
To prepare substrate, the solid (m.w. 550) was first dissolved in 10.0 ml DMSO. Buffer at pH 7.5 was then added to a final volume of 100 ml.
Crude extract of human polymorphonuclear leukocytes (PMN) containing elastase activity.
Inhibitors (cephalosporin sulfone esters) to be tested dissolved in DMSO just before use.
To 1.0 ml of 0.2 mM Boc-AAPAN in a cuvette, 0.01-0.1 ml of DMSO with or without inhibitor was added. After mixing, a measurement was taken at 410 mμ to detect any spontaneous hydrolysis due to presence of test compound. 0.05 Milliliters of PMN extract was then added and the ΔOD/min at 410 mμ was measured and recorded. Beckman model 35 spectrophotometer was used.
The elastase activity in the crude PMN extract may vary from one preparation to another. A control of each new batch is run, and the volume added in the assay procedure is adjusted according to activity.
In the case of `COC1C(=O)N2C(C(=O)OC(C)(C)C)=C(CSc3nccn3C)CS(=O)(=O)C12` (centres unmarked) [R1=OCH3, M=drawing 41, B=OtBu, Q=H], the IC50 was 2330 nM.
On the same count and under the same terms, the same measure for `COC1C(=O)N2C(C(=O)OC(C)(C)C)=C(CSc3nnc(C)s3)CS(=O)(=O)C12` (centres unmarked) [R1=OCH3, M=drawing 42, B=OtBu, Q=H]: 2230 nM.

The same assay, now with this note: Table II; 50% inhibition of the enzyme activity 2 minutes after zero time; crude PMN extract, pH 7.5, 0.2 mM Boc-AAPAN; read-out: ED50 (the source's name) (converted).
On to `CO[C@H]1C(=O)N2C(C(=O)OC(C)(C)C)=C(C(=O)O)CS(=O)(=O)C12` (stereo partly drawn) [R1=OCH3, M=COOH, B=OtBu, Q=H, t-Butyl 3-hydroxycarbonyl-7α-methoxy-8-oxo-5-thia-1-azabicyclo[4.2.0]oct-2-ene-2-carboxylate-5,5 dioxide], for which the IC50 is 28.8 nM.
In the case of `COC(=O)C1=C(Cl)CS(=O)(=O)C2[C@@H](OC)C(=O)N12` (stereo partly drawn) [R1=OCH3, M=Cl, B=OCH3, Q=H, Methyl-3-chloro-7α-methoxy-8-oxo-5-thia-1-azabicyclo[4.2.0]oct-2-ene-2-carboxylate-5,5-dioxide], the IC50 was 676 nM.
With `COC1C(=O)N2C(C(=O)OC(C)(C)C)=C(COC(=O)CN(C)C(=O)OC(C)(C)C)CS(=O)(=O)C12` (centres unmarked) [R1=OCH3, M=drawing 38, B=OtBu, Q=H], the IC50 was 198 nM.
The same measure, in the same setting: to `COC1C(=O)N2C(C(=O)OC(C)(C)C)=C(CSc3nc[nH]n3)CS(=O)(=O)C12` (centres unmarked) [R1=OCH3, M=drawing 39, B=OtBu, Q=H] belongs 2160 nM; to `CCOC(=S)SCC1=C(C(=O)OC(C)(C)C)N2C(=O)C(OC)C2S(=O)(=O)C1` (centres unmarked) [R1=OCH3, M=drawing 40, B=OtBu, Q=H], 1600 nM.
`COC1C(=O)N2C(C(=O)OC(C)(C)C)=C(CSc3nc4ccccc4s3)CS(=O)(=O)C12` (centres unmarked) [R1=OCH3, M=drawing 43, B=OtBu, Q=H]: the IC50 is 6220 nM.
On the same count and under the same terms, to `COC1C(=O)N2C(C(=O)OC(C)(C)C)=C(CSc3cn[nH]n3)CS(=O)(=O)C12` (centres unmarked) [R1=OCH3, M=drawing 44, B=OtBu, Q=H] belongs 1440 nM.
As for `COC1C(=O)N2C(C(=O)OC(C)(C)C)=C(CSc3nnnn3C)CS(=O)(=O)C12` (centres unmarked) [R1=OCH3, M=drawing 45, B=OtBu, Q=H], the IC50 is 1390 nM.
For `CC(=O)OCC1=C(C(=O)OCc2ccccc2)N2C(=O)C(OC(C)=O)C2S(=O)(=O)C1` (centres unmarked) [R1=OCOCH3, M=CH2OCOCH3, B=OCH2.phi., Q=H], the IC50 is 914 nM.
With `CC(=O)OCC1=C(C(=O)OC(C)(C)C)N2C(=O)C(OC=O)C2S(=O)(=O)C1` (centres unmarked) [R1=drawing 36, M=CH2OCOCH3, B=OtBu, Q=H], the IC50 was 385 nM.
Regarding `COC(=O)C1=C(COC(C)=O)CS(=O)(=O)C2C(OC=O)C(=O)N12` (centres unmarked) [R1=drawing 37, M=CH2OCOCH3, B=OCH3, Q=H], the IC50 was 288 nM.
Consider `CO[C@H]1C(=O)N2C(C(=O)OC(C)(C)C)=C(COC(C)=O)C(CSc3ccccc3)S(=O)(=O)[C@H]12` (stereo partly drawn) [t-Butyl 3-acetyloxymethyl-7α-methoxy-4-phenylthiomethyl-8-oxo-5-thia-1-azabicyclo[4.2.0]oct-2-ene-2-carboxylate-5,5-dioxide], for which the IC50 is 60.3 nM.
